Where a name gives a salt, the structure may show the parent alone.
Experiments:
Assay in all cases: MIC, broth microdilution (CLSI), substance alone or ATB combined with compound at 4 or 8 μg/mL
ECO 190317 = type: cell-based, E. coli; settings: ECO 190317; for MIC ATB combined with Example: Example @8 μg/ml
How it was run: (§1)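 Growth inhibition endpoint, read visually after 16-20 h at 35° C in ambient air. Cation-adjusted Mueller-Hinton broth, inoculum 5·10^5 CFU/mL, CLSI M7-A7 protocol.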

ECO UFR39 = type: cell-based, E. coli; settings: ECO UFR39; for MIC ATB combined with Example: Example @8 μg/ml
How it was run: as §1

KPN 6299 = type: cell-based, K. pneumoniae; settings: Example @8 μg/ml
How it was run: as §1

KPN BAA-1898 = type: cell-based, K. pneumoniae; settings: KPN BAA-1898; for MIC ATB combined with Example: Example @8 μg/ml
How it was run: as §1

KPN UFR42 = type: cell-based, K. pneumoniae; settings: KPN UFR42; for MIC ATB combined with Example: Example @8 μg/ml
How it was run: as §1

ECL P99 = type: cell-based, E. cloacae; settings: ECL P99; for MIC ATB combined with Example: Example @8 μg/ml
How it was run: as §1

PAE 105250 = type: cell-based, P. aeruginosa; settings: PAE 105250; for MIC ATB combined with Example: Example @8 μg/ml
How it was run: as §1

PAE UFR48 = type: cell-based, P. aeruginosa; settings: PAE UFR48; for MIC ATB combined with Example: Example @8 μg/ml
How it was run: as §1

PAE UFR90 = type: cell-based, P. aeruginosa; settings: PAE UFR90; for MIC ATB combined with Example: Example @8 μg/ml
How it was run: as §1

SAU 29213 = type: cell-based, S. aureus; settings: for MIC ATB combined with Example: SAU 29213, Example @8 μg/ml
How it was run: as §1

SPN 49619 = type: cell-based, S. pneumoniae; settings: SPN 49619; for MIC ATB combined with Example: Example @8 μg/ml
How it was run: as §1

ABA UFR152 = type: cell-based, A. baumannii; settings: Acinetobacter baumannii, substance alone, read-out: MIC
How it was run: as §1

ABA UFR154 = type: cell-based, A. baumannii; settings: Acinetobacter baumannii, substance alone, read-out: MIC
How it was run: as §1

[1] = Escherichia coli, substance alone, read-out: MIC
[2] = Pseudomonas aeruginosa, substance alone, read-out: MIC

## NCCCn1c2c(sc1=O)C1CN(C2)C(=O)N1OS(=O)(=O)O (stereo not shown) [Example 10, [5-(3-aminopropyl)-4,9-dioxo-3-thia-5,8,10-triaza-tricyclo[6.2.1.0^2,6]undec-2(6)-en-10-yl] hydrogen sulfate]
ECO 190317; ATB ATM
  MIC ATB combined with Example: <0.031 µg/mL
ECO 190317; ATB FEP
  MIC ATB combined with Example: <0.031 µg/mL
ECO 190317; ATB FOS
  MIC ATB combined with Example: <0.125 µg/mL
ECO 190317; ATB MEM
  MIC ATB combined with Example: <0.031 µg/mL
ECO 190317; ATB PIP
  MIC ATB combined with Example: <0.031 µg/mL
ECO 190317; [1]
  MIC: 0.5 µg/mL
ECO UFR39; ATB ATM
  MIC ATB combined with Example: <=0.031 μg/mL
ECO UFR39; ATB FEP
  MIC ATB combined with Example: <=0.031 μg/mL
ECO UFR39; ATB FOS
  MIC ATB combined with Example: <0.125 µg/mL
ECO UFR39; ATB MEM
  MIC ATB combined with Example: <0.031 µg/mL
ECO UFR39; ATB PIP
  MIC ATB combined with Example: <0.031 µg/mL
ECO UFR39; [1]
  MIC: 2 µg/mL
KPN 6299; ATB ATM
  MIC ATB combined with Example: <=0.031 μg/mL
KPN 6299; ATB FEP
  MIC ATB combined with Example: 0.063 µg/mL
KPN 6299; ATB FOS
  MIC ATB combined with Example: 32 µg/mL
KPN 6299; ATB MEM
  MIC ATB combined with Example: 0.063 µg/mL
KPN 6299; ATB PIP
  MIC ATB combined with Example: 1 µg/mL
KPN BAA-1898; ATB ATM
  MIC ATB combined with Example: <=0.031 μg/mL
KPN BAA-1898; ATB FEP
  MIC ATB combined with Example: <=0.031 μg/mL
KPN BAA-1898; ATB FOS
  MIC ATB combined with Example: 2 µg/mL
KPN BAA-1898; ATB MEM
  MIC ATB combined with Example: <=0.031 μg/mL
KPN BAA-1898; ATB PIP
  MIC ATB combined with Example: <=0.031 μg/mL
KPN BAA-1898; Klebsiella pneumoniae, BAA1898, substance alone, read-out: MIC
  MIC: 16 µg/mL
KPN UFR42; ATB ATM
  MIC ATB combined with Example: 0.063 µg/mL
KPN UFR42; ATB FEP
  MIC ATB combined with Example: <=0.031 μg/mL
KPN UFR42; ATB FOS
  MIC ATB combined with Example: 8 µg/mL
KPN UFR42; ATB MEM
  MIC ATB combined with Example: >32 µg/mL
KPN UFR42; ATB PIP
  MIC ATB combined with Example: >32 µg/mL
KPN UFR42; Klebsiella pneumoniae, substance alone, read-out: MIC
  MIC: > 32 µg/mL
ECL P99; ATB ATM
  MIC ATB combined with Example: <0.031 µg/mL
ECL P99; ATB FEP
  MIC ATB combined with Example: <0.031 µg/mL
ECL P99; ATB FOS
  MIC ATB combined with Example: <0.125 µg/mL
ECL P99; ATB MEM
  MIC ATB combined with Example: <0.031 µg/mL
ECL P99; ATB PIP
  MIC ATB combined with Example: <0.031 µg/mL
ECL P99; Enterobacter cloacae, substance alone, read-out: MIC
  MIC: 2 µg/mL
PAE 105250; ATB ATM
  MIC ATB combined with Example: <0.031 µg/mL
PAE 105250; ATB FEP
  MIC ATB combined with Example: <0.031 µg/mL
PAE 105250; ATB FOS
  MIC ATB combined with Example: <0.125 µg/mL
PAE 105250; ATB MEM
  MIC ATB combined with Example: <0.031 µg/mL
PAE 105250; ATB PIP
  MIC ATB combined with Example: <0.031 µg/mL
PAE 105250; [2]
  MIC: 4 µg/mL
PAE UFR48; ATB ATM
  MIC ATB combined with Example: <0.031 µg/mL
PAE UFR48; ATB FEP
  MIC ATB combined with Example: <0.031 µg/mL
PAE UFR48; ATB FOS
  MIC ATB combined with Example: <0.125 µg/mL
PAE UFR48; ATB MEM
  MIC ATB combined with Example: <0.031 µg/mL
PAE UFR48; ATB PIP
  MIC ATB combined with Example: <0.031 µg/mL
PAE UFR48; [2]
  MIC: 4 µg/mL
PAE UFR90; ATB ATM
  MIC ATB combined with Example: <0.031 µg/mL
PAE UFR90; ATB FEP
  MIC ATB combined with Example: <0.031 µg/mL
PAE UFR90; ATB FOS
  MIC ATB combined with Example: <0.125 µg/mL
PAE UFR90; ATB MEM
  MIC ATB combined with Example: <0.031 µg/mL
PAE UFR90; ATB PIP
  MIC ATB combined with Example: <0.031 µg/mL
PAE UFR90; [2]
  MIC: 4 µg/mL
SAU 29213; ATB ATM
  MIC ATB combined with Example: >32 µg/mL
SAU 29213; ATB FEP
  MIC ATB combined with Example: 0.5 µg/mL
SAU 29213; ATB FOS
  MIC ATB combined with Example: <=0.125 μg/mL
SAU 29213; ATB MEM
  MIC ATB combined with Example: <=0.031 μg/mL
SAU 29213; ATB PIP
  MIC ATB combined with Example: 1 µg/mL
SAU 29213; Staphylococcus aureus, substance alone, SAU 29213 (MSSA 29213), read-out: MIC
  MIC: 32 µg/mL
SPN 49619; ATB ATM
  MIC ATB combined with Example: <0.031 µg/mL
SPN 49619; ATB FEP
  MIC ATB combined with Example: <0.031 µg/mL
SPN 49619; ATB FOS
  MIC ATB combined with Example: <0.125 µg/mL
SPN 49619; ATB MEM
  MIC ATB combined with Example: <0.031 µg/mL
SPN 49619; ATB PIP
  MIC ATB combined with Example: <0.031 µg/mL
SPN 49619; Streptococcus pneumoniae, substance alone, read-out: MIC
  MIC: 1 µg/mL
ABA UFR152
  MIC: 32 µg/mL
ABA UFR154
  MIC: > 32 µg/mL
